From patent US6440958B1, “Acrylic and propionic acid compounds, intermediates, processes, compositions, and methods” (Eli Lilly and Company, priority 1995, dated 2002)

Tests used:
[1] = tested on: ovariectomized (OVX) rats; test: Uterine wet weight in ovariectomized rat post-menopausal model; format: in vivo, Sprague Dawley rats; settings: for Uterine weight (% increase vs. OVX): oral, daily for 4 days, OVX rats
Procedure: (§1) In the examples illustrating the methods, a post-menopausal model was used in which effects of different treatments upon circulating lipids were determined.
(§2) Seventy-five day old female Sprague Dawley rats (weight range of 200 to 225g) were obtained from Charles River Laboratories (Portage, Mich.). The animals were either bilaterally ovariectomized (OVX) or exposed to a Sham surgical procedure at Charles River Laboratories, and then shipped after one week. Upon arrival, they were housed in metal hanging cages in groups of 3 or 4 per cage and had ad libitum access to food (calcium content approximately 0.5%) and water for one week. Room temperature was maintained at 22.2°±1.7° C. with a minimum relative humidity of 40%. The photoperiod in the room was 12 hours light and 12 hours dark.
(§3) Dosing Regimen Tissue Collection. After a one week acclimation period (therefore, two weeks post-OVX) daily dosing with test compound was initiated. 17α-ethynyl estradiol or the test compound were given orally, unless otherwise stated, as a suspension in 1% carboxymethylcellulose or dissolved or suspended in 20% cyclodextrin. Animals were dosed daily for 4 days. Following the dosing regimen, animals were weighed and anesthetized with a ketamine: Xylazine (2:1, V:V) mixture and a blood sample was collected by cardiac puncture. The animals were then sacrificed by asphyxiation with CO2, the uterus was removed through a midline incision, and a wet uterine weight was determined.

[2] = tested on: ovariectomized (OVX) rats; test: Uterine eosinophil peroxidase (EPO) assay; format: in vivo, Sprague Dawley rats; design: unit not given here; settings: oral, daily for 4 days
Description: as §2, §3
Uterine Eosinoihil Peroxidase (EPO) Assay. Uteri were kept at 4° C. until time of enzymatic analysis. The uteri were then homogenized in 50 volumes of 50 mM Tris buffer (pH -8.0) containing 0.005% Triton X-100. Upon addition of 0.01% hydrogen peroxide and 10 mM O-phenylenediamine (final concentrations) in Tris buffer, increase in absorbance was monitored for one minute at 450 nm. The presence of eosonophils in the uterus is an indication of estrogenic activity of a compound. The maximal velocity of a 15 second interval was determined over the initial, linear portion of the reaction curve.

[3] = tested on: ovariectomized (OVX) rats; test: Serum cholesterol in ovariectomized rat post-menopausal model; format: in vivo, Sprague Dawley rats; settings: oral, daily for 4 days
Procedure: as §1, §2, §3
Cholesterol Analysis. Blood samples were allowed to clot at room temperature for 2 hours, and serum was obtained following centrifugation for 10 minutes at 3000 rpm. Serum cholesterol was determined using a Boehringer Mannheim Diagnostics high performance cholesterol assay. Briefly the cholesterol was oxidized to cholest-4-en-3-one and hydrogen peroxide. The hydrogen peroxide was then reacted with phenol and 4-aminophenazone in the presence of peroxidase to produce a p-quinone imine dye, which was read spectrophotometrically at 500 nm. Cholesterol concentration was then calculated against a standard curve. The entire assay was automated using a Biomek Automated Workstation.

[4] = tested on: ovariectomized (OVX) rats; test: Uterine eosinophil peroxidase (EPO) assay; format: in vivo, Sprague Dawley rats
[5] = dose 0.1 mg/kg, test compounds in CDX (cyclodextrin) susp. or soln.
[6] = dose 1 mg/kg, CDX susp. or soln.
[7] = dose 10 mg/kg, CDX susp. or soln.
[8] = dose 0.1 mg/kg, test compounds in CDX susp. or soln.

SMILES | Uterine weight (% increase vs. OVX) [1, 5] [%] | Uterine weight (% increase vs. OVX) [1, 6] [%] | Uterine weight (% increase vs. OVX) [1, 7] [%] | Uterine EPO (V. max) [2, 8] | Uterine EPO (V. max) [2, 6] | Uterine EPO (V. max) [2, 7] | Serum Cholesterol (% decrease vs. OVX) [3, 8] [%] | Serum Cholesterol (% decrease vs. OVX) [3, 6] [%] | Serum Cholesterol (% decrease vs. OVX) [3, 7] [%] | melting point [°C] | Effect on uterus / uterine weight (in words) ([1]; orally administered at 0.1 mg/kg/day, vs. ovariectomized test animals) | Eosinophil infiltration into the uterus (stromal layer), in words [4]
O=C(O)/C=C/c1ccc(C(=O)c2c(-c3ccc(O)cc3)sc3cc(O)ccc23)cc1 [Example 3, (E)-6-hydroxy-3-[4-(2-carboxyvinyl)benzoyl]-2-(4-hydroxyphenyl)benzo[b]thiophene] | 23.9 | 19.7 | 97.3 | 0.9 | 1.2 | 8.4 | −15.1 | −26.6 | 57.7 |  |  | 
O=C(O)CCc1ccc(C(=O)c2c(-c3ccc(O)cc3)sc3cc(O)ccc23)cc1 [Example 4, 6-hydroxy-3-[4-(2-carboxyethyl)benzoyl]-2-(4-hydroxyphenyl)benzo[b]thiophene] | −45.9 | −37.0 | 29.3 | 0.0 | 0.0 | 1.2 | −46.2 | −28.8 | 16.5 | 244 to 248 |  | 
C#C[C@]1(O)CC[C@H]2[C@@H]3CCc4cc(O)ccc4[C@H]3CC[C@@]21C [EE2, 17α-ethynyl estradiol, reference compound] | 201.3 |  |  | 130.5 |  |  | 68.6 |  |  |  | uterine weight was substantially greater than the uterine weight of ovariectomized test animals | substantial, expected increase in eosinophil infiltration
COc1ccc(-c2sc3cc(OC)ccc3c2C(=O)c2ccc(/C=C/C(=O)O)cc2)cc1 [Example 2] | 25.0 | 23.3 | 119.9 | 2.1 | 2.1 | 35.1 | −16.6 | −37.3 | 73.2 | 204 to 207 |  | 
